Patent US11834454B2, “Alkynylphenylbenzamide compounds and applications thereof” (SHENZHEN NEWDEL BIOTECH CO., LTD., priority 2021, dated 2023)

Tests used:
BaF3-ETV6-NTRK3 = target: T1, BaF3-ETV6-NTRK3 (Homo sapiens, UniProt Q16288); assay: Cell proliferation inhibition, Ba/F3-TRKs stable strain (CCK-8); format: cell-based, mouse; settings: 72 hours, read-out: cell viability IC50 ETV6-NTRK3
T1 construct: fused on or other part: P41212 (Transcription factor ETV6)
Source text: (§1) The BaF3 cells (mouse pre-B cells) used in this experiment were purchased from the Japanese Cell Bank. All of the monoclonal stable strains, BaF3-CD74-NTRK1, BaF3-ETV6-NTRK2 and BaF3-ETV6-NTRK3 were constructed by our laboratory, and were identified by experiments such as positive control, protein expression and gene sequencing.
(§2) The brief steps of stable strain construction were as follows: constructed pCDNA3.1(+) plasmid vector carrying genes such as CD74-NTRK1, ETV6-NTRK2, ETV6-NTRK3; the plasmid was electroporated into Ba/F3 cells using Amaxa® Cell Line Nucleofector® Kit V; 48 hours after electroporation, geneticin (G418) with a final concentration of 1000 μg/mL was added to screen for two weeks, and the interleukin 3 (IL3) was removed to continue screening to obtain polyclonal stable strains; and then single clones were selected by limiting dilution method; the stable strains were then identified by the positive drugs, Western Blot (WB), and gene sequencing; the correct monoclonal through identification can be used to study the cell proliferation inhibitory activity of the inhibitors.
(§3) Cell proliferation inhibitory activity study: The cells in logarithmic growth phase were seeded into 96-well plates at 8000-12000 cells/well, and the inhibitors at different concentrations of (0-10 μM) were added the next day, and the culture was continued for 72 hours; then 10 μL of Cell Counting Kit-8 Cell Counting Reagent (CCK-8 Reagent) was added to each well, and continued to incubate for 1-3 hours; then its absorbance at 450 nm and 650 nm were measured with a super microplate reader. The median inhibitory concentration (IC50) was calculated using medical graphing software (GraphPad Prism 8.0.0).

BaF3-CD74-NTRK1 = target: T2, BaF3-CD74-NTRK1 (Homo sapiens, UniProt P04629); assay: as above; format: cell-based, mouse; settings: 72 hours, read-out: cell viability IC50 CD74-NTRK1
T2 construct: fused on or other part: P04233 (HLA class II histocompatibility antigen gamma chain)
Source text: as §1, §2, §3

BaF3-CD74-NTRK1-G667C = target: T3, BaF3-CD74-NTRK1-G667C (Homo sapiens, UniProt P04629, G667C); assay: Drug-resistant cell proliferation inhibition (CCK-8); format: cell-based, mouse; settings: 72 hours, read-out: drug-resistant cell viability IC50
T3 construct: fused on or other part: P04233 (HLA class II histocompatibility antigen gamma chain)
Source text: (§4) BaF3 cells (mouse pre-B cells) used in this experiment were purchased from Japan Cell Bank, all of the monoclonal stable strains, BaF3-CD74-NTRK1-G667C, BaF3-CD74-NTRK1-F589L, BaF3-CD74-NTRK1-G595R, BaF3-CD74-NTRK1-G667A, BaF3-CD74-NTRK1-V573M, BaF3-ETV6-NTRK2-G639R, BaF3-ETV6-NTRK2-G709C, BaF3-ETV6-NTRK2-V617M, BaF3-ETV6-NTRK2-F633L, BaF3-ETV6-NTRK3-G696C, BaF3-ETV6-NTRK3-G696A, BaF3-ETV6-NTRK3-G623R, BaF3-ETV6-NTRK3-G623E, BaF3-ETV6-NTRK3-F617L and BaF3-ETV6-NTRK3-V601M were constructed by our laboratory, and were identified by experiments such as positive control, protein expression and gene sequencing.
(§5) The brief steps for stable strains construction were as follows: constructed pCDNA3.1(+) plasmid vector carrying genes such as BaF3-CD74-NTRK1-G667C, BaF3-CD74-NTRK1-F589L, BaF3-CD74-NTRK1-G595R, BaF3-CD74-NTRK1-G667A, BaF3-CD74-NTRK1-V573M, BaF3-ETV6-NTRK2-G639R, BaF3-ETV6-NTRK2-G709C, BaF3-ETV6-NTRK2-V617M, BaF3-ETV6-NTRK2-F633L, BaF3-ETV6-NTRK3-G696C, BaF3-ETV6-NTRK3-G696A, BaF3-ETV6-NTRK3-G623R, BaF3-ETV6-NTRK3-G623E, BaF3-ETV6-NTRK3-F617L and BaF3-ETV6-NTRK3-V601M; the plasmid was electroporated into Ba/F3 cells using Amaxa® Cell Line Nucleofector® Kit V; 48 hours after of electroporation, geneticin (G418) with a final concentration of 1000 μg/mL was added to screen for two weeks, and the interleukin 3 (IL3) was removed to continue screening to obtain polyclonal stable strains; and then single clones were selected by limiting dilution method; the stable strains were then identified by the positive drugs, Western Blot (WB), and gene sequencing; the correct monoclonal through identification can be used to study the cell proliferation inhibitory activity of the inhibitors.
as §3

BaF3-CD74-NTRK1-F589L = target: T4, BaF3-CD74-NTRK1-F589L (Homo sapiens, UniProt P04629, F589L); assay: as above; format: cell-based, mouse; settings: 72 hours, read-out: drug-resistant cell viability IC50
T4 construct: fused on or other part: P04233 (HLA class II histocompatibility antigen gamma chain)
Source text: as §4, §5, §3

BaF3-ETV6-NTRK3-G696A = target: T5, BaF3-ETV6-NTRK3-G696A (Homo sapiens, UniProt Q16288, G696A); assay: as above; format: cell-based, mouse; settings: 72 hours, read-out: drug-resistant cell viability IC50
T5 construct: constructed pCDNA3.1(+) plasmid vector carrying genes such as; fused on or other part: P41212 (Transcription factor ETV6)
Source text: as §4, §5, §3

BaF3-ETV6-NTRK3-G623R = target: T6, BaF3-ETV6-NTRK3-G623R (Homo sapiens, UniProt Q16288, G623R); assay: as above; format: cell-based, mouse; settings: 72 hours, read-out: drug-resistant cell viability IC50
T6 construct: constructed pCDNA3.1(+) plasmid vector carrying genes such as; fused on or other part: P41212 (Transcription factor ETV6)
Source text: as §4, §5, §3

BaF3-ETV6-NTRK3-F617L = target: T7, BaF3-ETV6-NTRK3-F617L (Homo sapiens, UniProt Q16288, F617L); assay: as above; format: cell-based, mouse; settings: 72 hours, read-out: drug-resistant cell viability IC50
T7 construct: constructed pCDNA3.1(+) plasmid vector carrying genes such as; fused on or other part: P41212 (Transcription factor ETV6)
Source text: as §4, §5, §3

BaF3-ETV6-NTRK3-G623E = target: T8, BaF3-ETV6-NTRK3-G623E (Homo sapiens, UniProt Q16288, G623E); assay: as above; format: cell-based, mouse; settings: 72 hours, read-out: drug-resistant cell viability IC50
T8 construct: constructed pCDNA3.1(+) plasmid vector carrying genes such as; fused on or other part: P41212 (Transcription factor ETV6)
Source text: as §4, §5, §3

TRKA = target: T9, TRKA (Homo sapiens, UniProt P04629); assay: Z'-LYTE kinase activity detection, TRKA; format: biochemical
T9 construct: purchased American Life Technologies PV3144

BaF3-ETV6-NTRK2 = target: T10, BaF3-ETV6-NTRK2 (Homo sapiens, UniProt Q16620); assay: Cell proliferation inhibition, Ba/F3-TRKs stable strain (CCK-8); format: cell-based, mouse; settings: 72 hours, read-out: cell viability IC50 ETV6-NTRK2
T10 construct: fused on or other part: P41212 (Transcription factor ETV6)
Source text: as §1, §2, §3

BaF3-ETV6-NTRK2-G639R = target: T11, BaF3-ETV6-NTRK2-G639R (Homo sapiens, UniProt Q16620, G623R); assay: Drug-resistant cell proliferation inhibition (CCK-8); format: cell-based, mouse; settings: 72 hours, read-out: drug-resistant cell viability IC50
T11 construct: constructed pCDNA3.1(+) plasmid vector carrying genes such as; fused on or other part: P41212 (Transcription factor ETV6)
Source text: as §4, §5, §3

BaF3-ETV6-NTRK2-G709C = target: T12, BaF3-ETV6-NTRK2-G709C (Homo sapiens, UniProt Q16620, G693C); assay: as above; format: cell-based, mouse; settings: 72 hours, read-out: drug-resistant cell viability IC50
T12 construct: constructed pCDNA3.1(+) plasmid vector carrying genes such as; fused on or other part: P41212 (Transcription factor ETV6)
Source text: as §4, §5, §3

TRKB = target: T13, TRKB (Homo sapiens, UniProt Q16620); assay: Z'-LYTE kinase activity detection, TRKB; format: biochemical
T13 construct: purchased American Life Technologies PV3616
T13 sequence (Q16620 32-822): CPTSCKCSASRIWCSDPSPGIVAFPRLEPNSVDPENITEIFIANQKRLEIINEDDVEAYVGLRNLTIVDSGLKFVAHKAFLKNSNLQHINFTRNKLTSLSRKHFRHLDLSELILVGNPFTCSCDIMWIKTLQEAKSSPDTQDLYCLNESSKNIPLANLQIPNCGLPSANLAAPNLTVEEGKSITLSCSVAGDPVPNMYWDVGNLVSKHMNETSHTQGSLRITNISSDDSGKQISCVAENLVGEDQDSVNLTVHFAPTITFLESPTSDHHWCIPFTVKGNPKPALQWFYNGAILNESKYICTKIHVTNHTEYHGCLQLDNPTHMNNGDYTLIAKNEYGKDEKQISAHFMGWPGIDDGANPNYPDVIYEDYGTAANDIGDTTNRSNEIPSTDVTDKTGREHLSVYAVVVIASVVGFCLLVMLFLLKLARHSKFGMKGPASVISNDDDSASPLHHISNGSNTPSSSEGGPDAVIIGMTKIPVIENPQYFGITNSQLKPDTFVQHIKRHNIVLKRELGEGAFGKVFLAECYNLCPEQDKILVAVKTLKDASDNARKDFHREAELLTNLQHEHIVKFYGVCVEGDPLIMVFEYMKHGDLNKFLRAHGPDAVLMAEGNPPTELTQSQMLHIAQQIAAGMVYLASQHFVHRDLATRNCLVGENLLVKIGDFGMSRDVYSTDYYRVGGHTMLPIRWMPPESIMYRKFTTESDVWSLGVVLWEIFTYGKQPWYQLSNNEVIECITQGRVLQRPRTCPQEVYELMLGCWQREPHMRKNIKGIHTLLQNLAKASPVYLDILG

T2 sequence (P04629 510-796 limits assumed): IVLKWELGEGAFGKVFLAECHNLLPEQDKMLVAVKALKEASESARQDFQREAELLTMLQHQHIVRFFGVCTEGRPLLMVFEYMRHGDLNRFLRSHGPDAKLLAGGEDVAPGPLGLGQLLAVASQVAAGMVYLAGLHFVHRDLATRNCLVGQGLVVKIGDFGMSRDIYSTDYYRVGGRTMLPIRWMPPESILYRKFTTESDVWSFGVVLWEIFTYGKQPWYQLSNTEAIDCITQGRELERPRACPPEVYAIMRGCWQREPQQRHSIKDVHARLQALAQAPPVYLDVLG
T9 sequence (P04629 33-796): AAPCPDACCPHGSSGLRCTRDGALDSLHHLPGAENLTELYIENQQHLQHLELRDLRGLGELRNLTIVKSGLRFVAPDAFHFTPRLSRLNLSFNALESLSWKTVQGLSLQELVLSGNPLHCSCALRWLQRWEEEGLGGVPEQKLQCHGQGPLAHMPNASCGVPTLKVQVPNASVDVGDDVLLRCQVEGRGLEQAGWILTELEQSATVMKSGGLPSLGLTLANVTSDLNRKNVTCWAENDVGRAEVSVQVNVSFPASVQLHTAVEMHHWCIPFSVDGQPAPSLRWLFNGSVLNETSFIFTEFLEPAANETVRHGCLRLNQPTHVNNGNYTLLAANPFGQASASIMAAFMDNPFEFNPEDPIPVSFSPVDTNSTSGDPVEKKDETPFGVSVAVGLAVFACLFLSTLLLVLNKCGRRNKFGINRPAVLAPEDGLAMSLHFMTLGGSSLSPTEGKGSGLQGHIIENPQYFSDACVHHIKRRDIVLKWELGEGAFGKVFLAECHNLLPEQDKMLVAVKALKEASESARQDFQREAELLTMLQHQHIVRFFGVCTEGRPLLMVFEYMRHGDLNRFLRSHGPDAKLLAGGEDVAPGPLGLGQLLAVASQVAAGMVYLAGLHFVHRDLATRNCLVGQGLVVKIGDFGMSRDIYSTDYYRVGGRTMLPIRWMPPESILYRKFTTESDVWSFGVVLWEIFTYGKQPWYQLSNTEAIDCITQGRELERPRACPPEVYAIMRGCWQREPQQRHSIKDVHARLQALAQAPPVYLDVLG
T4 sequence (P04629 510-796 F589L limits assumed): as the sequence (P04629 510-796 limits assumed) above, with F80L counted along it
T5 sequence (Q16288 whole entry G696A, the tested form may be a part): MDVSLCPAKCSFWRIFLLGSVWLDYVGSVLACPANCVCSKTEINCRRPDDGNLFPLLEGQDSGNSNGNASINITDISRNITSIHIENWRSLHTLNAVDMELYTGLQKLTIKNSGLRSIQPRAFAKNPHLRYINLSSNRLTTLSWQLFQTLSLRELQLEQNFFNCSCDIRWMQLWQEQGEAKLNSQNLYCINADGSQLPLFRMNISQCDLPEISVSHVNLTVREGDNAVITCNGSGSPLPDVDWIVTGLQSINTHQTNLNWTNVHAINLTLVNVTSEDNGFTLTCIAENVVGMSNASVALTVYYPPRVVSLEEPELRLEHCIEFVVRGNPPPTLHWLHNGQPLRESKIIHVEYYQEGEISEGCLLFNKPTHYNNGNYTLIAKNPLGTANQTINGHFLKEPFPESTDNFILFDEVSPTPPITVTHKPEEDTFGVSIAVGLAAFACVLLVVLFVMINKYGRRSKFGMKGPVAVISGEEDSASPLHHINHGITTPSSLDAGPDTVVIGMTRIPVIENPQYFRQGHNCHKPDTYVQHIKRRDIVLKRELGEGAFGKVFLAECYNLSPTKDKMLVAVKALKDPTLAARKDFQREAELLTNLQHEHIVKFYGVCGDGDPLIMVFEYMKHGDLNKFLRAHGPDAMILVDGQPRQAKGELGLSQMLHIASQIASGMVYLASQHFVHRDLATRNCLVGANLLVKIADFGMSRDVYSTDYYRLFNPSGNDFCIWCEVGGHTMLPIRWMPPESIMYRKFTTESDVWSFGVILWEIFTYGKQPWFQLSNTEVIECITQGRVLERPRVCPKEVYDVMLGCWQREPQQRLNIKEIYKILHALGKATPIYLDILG
T10 sequence (Q16620 538-822 limits assumed): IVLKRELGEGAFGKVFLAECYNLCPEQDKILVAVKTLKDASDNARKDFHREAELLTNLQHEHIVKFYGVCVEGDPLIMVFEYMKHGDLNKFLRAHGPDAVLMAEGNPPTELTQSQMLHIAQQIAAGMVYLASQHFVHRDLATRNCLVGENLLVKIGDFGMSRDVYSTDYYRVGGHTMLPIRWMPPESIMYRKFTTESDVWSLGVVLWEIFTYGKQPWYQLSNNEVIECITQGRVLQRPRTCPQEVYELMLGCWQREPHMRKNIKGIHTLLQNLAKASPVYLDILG
T3 sequence (P04629 510-796 G667C limits assumed): as the sequence (P04629 510-796 limits assumed) above, with G158C counted along it
T7 sequence (Q16288 whole entry F617L, the tested form may be a part): as the sequence (Q16288 whole entry G696A, the tested form may be a part) above, with F617L, A696G counted along it
T6 sequence (Q16288 whole entry G623R, the tested form may be a part): as the sequence (Q16288 whole entry G696A, the tested form may be a part) above, with G623R, A696G counted along it
T11 sequence (Q16620 538-822 G623R limits assumed): as the sequence (Q16620 538-822 limits assumed) above, with G86R counted along it
T8 sequence (Q16288 whole entry G623E, the tested form may be a part): as the sequence (Q16288 whole entry G696A, the tested form may be a part) above, with G623E, A696G counted along it
T12 sequence (Q16620 538-822 G693C limits assumed): as the sequence (Q16620 538-822 limits assumed) above, with G156C counted along it
T1 sequence (Q16288 whole entry, the tested form may be a part): as the sequence (Q16288 whole entry G696A, the tested form may be a part) above, with A696G counted along it

| IC50 (TRKA) [nM] | IC50 (TRKB) [nM] | Structure (SMILES) | IC50 (BaF3-ETV6-NTRK3) [nM] | IC50 (BaF3-CD74-NTRK1) [nM] | IC50 (BaF3-CD74-NTRK1-G667C) [nM] | IC50 (BaF3-CD74-NTRK1-F589L) [nM] | IC50 (BaF3-ETV6-NTRK3-G696A) [nM] | IC50 (BaF3-ETV6-NTRK3-G623R) [nM] | IC50 (BaF3-ETV6-NTRK3-F617L) [nM] | IC50 (BaF3-ETV6-NTRK3-G623E) [nM] | IC50 (BaF3-ETV6-NTRK2) [nM] | IC50 (BaF3-ETV6-NTRK2-G639R) [nM] | IC50 (BaF3-ETV6-NTRK2-G709C) [nM] |
| --- | --- | --- | --- | --- | --- | --- | --- | --- | --- | --- | --- | --- | --- |
| < 10 |  | Cc1c(C#Cc2cnc3ccc(N4CCC(O)CC4)nn23)cccc1C(=O)Nc1cc(Cl)cc(C(F)(F)F)c1 [XS3-55, N-(3-CHLORO-5-(TRIFLUOROMETHYL)PHENYL)-3-((6-(4-HYDROXYPIPERIDIN-1-YL)IMIDAZO[1,2-B]PYRIDAZINE-3-YL)ETHYNYL)-2-METHYLBENZAMIDE] | 10 to 100 | 10 to 100 | < 10 | 100 to 1000 | < 10 | 100 to 1000 | 10 to 100 | < 10 |  |  |  |
| < 10 | < 10 | Cc1c(C#Cc2cnc3ccc(N4CCOCC4)nn23)cccc1C(=O)Nc1cc(CN2CCN(C)CC2)cc(C(F)(F)F)c1 [XS3-68, 2-METHYL-N-(3-((4-METHYLPIPERAZIN-1-YL)METHYL)-5-(TRIFLUOROMETHYL)PHENYL)-3-((6-METHYLENE) LINOIMIDAZO[1,2-B]PYRIDAZIN-3-YL)ETHYNYL)BENZAMIDE] | < 10 | < 10 | < 10 | 100 to 1000 | < 10 | 10 to 100 | 10 to 100 | < 10 | 10 to 100 | 10 to 100 | < 10 |
| < 10 | < 10 | Cc1c(C#Cc2cnc3ccc(N4CCC(O)CC4)nn23)cccc1C(=O)Nc1cc(CN2CCN(C)CC2)cc(C(F)(F)F)c1 [XS3-81, 3-((6-(4-HYDROXYPIPERIDIN-1-YL)IMIDAZO[1,2-B]PYRIDAZIN-3-YL)ETHYNYL)-2-METHYL-N-(3-(((4-METHYLPIPERAZIN-1-YL)METHYL)-5-(TRIFLUOROMETHYL)PHENYL)BENZAMIDE] | < 10 | 10 to 100 | < 10 | 100 to 1000 | < 10 | 10 to 100 | 10 to 100 | < 10 | < 10 | 10 to 100 | 10 to 100 |
| < 10 | < 10 | Cc1cn(-c2cc(NC(=O)c3cccc(C#Cc4cnc5ccc(N6CCC(O)CC6)nn45)c3C)cc(C(F)(F)F)c2)cn1 [XS3-87, 3-((6-(4-HYDROXYPIPERIDIN-1-YL)IMIDAZO[1,2-B]PYRIDAZIN-3-YL)ETHYNYL)-2-METHYL-N-(3-(4-METHYL-1H-IMIDAZOL-1-YL)-5-(TRIFLUOROMETHYL)PHENYL)BENZAMIDE] | < 10 | < 10 | < 10 | 10 to 100 | < 10 | 10 to 100 | < 10 | < 10 | 10 to 100 | 10 to 100 | < 10 |
